This assay addresses T1, full length MPS1 (Homo sapiens, UniProt P33981).
T1 sequence (P33981 1-857): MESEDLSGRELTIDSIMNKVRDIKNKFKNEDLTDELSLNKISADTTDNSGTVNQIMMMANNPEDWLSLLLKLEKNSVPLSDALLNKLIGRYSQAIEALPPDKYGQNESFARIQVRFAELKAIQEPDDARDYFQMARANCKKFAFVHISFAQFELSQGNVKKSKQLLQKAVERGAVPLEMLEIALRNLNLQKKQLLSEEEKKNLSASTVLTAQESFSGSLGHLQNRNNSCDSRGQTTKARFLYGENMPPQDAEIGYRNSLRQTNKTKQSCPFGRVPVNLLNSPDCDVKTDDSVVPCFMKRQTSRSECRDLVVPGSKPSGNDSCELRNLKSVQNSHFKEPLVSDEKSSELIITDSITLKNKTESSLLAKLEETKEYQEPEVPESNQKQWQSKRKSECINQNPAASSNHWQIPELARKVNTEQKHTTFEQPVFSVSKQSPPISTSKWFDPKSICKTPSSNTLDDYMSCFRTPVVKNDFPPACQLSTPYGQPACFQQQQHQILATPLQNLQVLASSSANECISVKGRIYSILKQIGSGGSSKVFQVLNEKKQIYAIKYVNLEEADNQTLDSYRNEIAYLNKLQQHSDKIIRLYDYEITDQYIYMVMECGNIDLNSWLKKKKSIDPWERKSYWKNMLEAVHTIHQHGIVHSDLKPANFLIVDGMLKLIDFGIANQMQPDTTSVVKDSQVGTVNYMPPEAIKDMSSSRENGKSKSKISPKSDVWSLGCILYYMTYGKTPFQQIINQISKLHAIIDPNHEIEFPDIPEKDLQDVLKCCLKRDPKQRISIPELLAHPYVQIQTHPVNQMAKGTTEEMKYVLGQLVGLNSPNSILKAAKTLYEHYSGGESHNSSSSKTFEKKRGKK
Description: biochemical. Here is the method: Measurement of Inhibition of MPS1 Kinase
(5 μM), ATP (10 μM), either DMSO (1% v/v) or the test compound (in the range 0.25 nM-100 μM in 1% DMSO) and assay buffer (50 mM HEPES (pH 7.0), 0.02% NaN3, 0.01% BSA, 0.1 mM Orthovandate, […], 1 μM DTT, Roche protease inhibitor). The reaction was carried out for 60 min at room temperature and stopped by the addition of buffer (10 μl) containing 20 mM EDTA, 0.05% (v/v) Brij-35, in 0.1M HEPES-buffered saline (Free acid, Sigma, UK). The plate was read on a Caliper EZ reader II (Caliper Life Sciences).
The % inhibition of the compounds is calculated relative to the means of selected control wells. […] The % inhibitions at each concentration are then fitted to a 4 parameter logistic fit: y=(a+((b−a)/(1+((c/x^d)))) where a=asym min, b=asym max, c=IC50 and d=hill coefficient

Here are results for 32 molecules from US9371319B2, “Pyrrolopyridineamino derivatives as MPS1 inhibitors” (priority 2011, dated 2016).

The molecule `Cn1cc(-c2[nH]c3cc(Nc4ccc(S(C)(=O)=O)cc4Cl)ncc3c2Cl)cn1` [Example 197, 3-Chloro-N-(2-chloro-4-(methylsulfonyl)phenyl)-2-(1-methyl-1H-pyrazol-4-yl)-1H-pyrrolo[3,2-c]pyridin-6-amine] had an IC50 of 69 nM.
`Cc1ncc(-c2ccc(Nc3cc4c(cn3)cc(-c3cnco3)n4C(=O)OC(C)C)c(Cl)c2)n1C` [Example 106] came in with an IC50 of 2 nM.
As for `Cn1cc(-c2cc3cnc(Nc4ccc(-c5cncn5C)cc4Cl)cc3[nH]2)cn1` [Example 125, N-(2-Chloro-4-(1-methyl-1H-imidazol-5-yl)phenyl)-2-(1-methyl-1H-pyrazol-4-yl)-1H-pyrrolo[3,2-c]pyridin-6-amine], the IC50 is 4 nM.
`CNC(=O)c1ccc(Nc2cc3[nH]c(-c4cnn(C)c4)cc3cn2)c(Cl)c1` [Example 134, 3-Chloro-N-methyl-4-(2-(1-methyl-1H-pyrazol-4-yl)-1H-pyrrolo[3,2-c]pyridin-6-ylamino)benzamide] showed an IC50 of 20 nM.
`Cc1oncc1-c1ccc(Nc2cc3c(cn2)cc(-c2cnn(C)c2)n3C(=O)OC(C)(C)C)c(Cl)c1` [Example 23] had an IC50 of 11 nM.
In turn, `COCCOc1ccc(Nc2cc3[nH]c(-c4cn[nH]c4)cc3cn2)cc1` [Example 170, N-(4-(2-Methoxyethoxy)phenyl)-2-(1H-pyrazol-4-yl)-1H-pyrrolo[3,2-c]pyridin-6-amine] had a half-inhibitory concentration (IC50) of 9 nM.
In the case of `COc1cc(C(=O)N2CC(OC)C2)ccc1Nc1cc2[nH]c(-c3cnn(C)c3)cc2cn1` [Example 120, (3-Methoxy-4-(2-(1-methyl-1H-pyrazol-4-yl)-1H-pyrrolo[3,2-c]pyridin-6-ylamino)phenyl)(3-methoxyazetidin-1-yl)methanone] it was 7 nM.
As for `Cc1ncc(-c2ccc(Nc3cc4[nH]c(-c5cnco5)cc4cn3)c(Cl)c2)n1C` [Example 186, N-(2-Chloro-4-(1,2-dimethyl-1H-imidazol-5-yl)phenyl)-2-(oxazol-5-yl)-1H-pyrrolo[3,2-c]pyridin-6-amine], the IC50 turned out to be 1 nM.
Consider `Cc1ncc(-c2ccc(Nc3cc4[nH]c(-c5cnn(C)c5)cc4cn3)c(Cl)c2)n1C` [Example 152, N-(2-Chloro-4-(1,2-dimethyl-1H-imidazol-5-yl)phenyl)-2-(1-methyl-1H-pyrazol-4-yl)-1H-pyrrolo[3,2-c]pyridin-6-amine], for which the IC50 turned out to be 5 nM.
Take `COCCNC(=O)c1ccc(Nc2cc3c(cn2)cc(-c2cnn(C)c2)n3C(=O)OC(C)(C)C)c(OC)c1` [Example 11]: the half-maximal inhibitory concentration (IC50) came out at 9 nM.
In the case of `CCOC(=O)n1c(-c2cnn(C)c2)cc2cnc(Nc3ccc(-c4cnc(C)n4C)cc3Cl)cc21` [Example 87], half-maximal inhibition (IC50) was put at 2 nM.
Consider `COc1cc(C(=O)N2CC(OC)C2)ccc1Nc1cc2[nH]c(-c3cnco3)cc2cn1` [Example 179, (3-Methoxy-4-(2-(oxazol-5-yl)-1H-pyrrolo[3,2-c]pyridin-6-ylamino)phenyl)(3-methoxyazetidin-1-yl)methanone], for which half-maximal inhibition (IC50) required 3 nM.
`Cn1cc(-c2[nH]c3cc(Nc4ccc(C(=O)N5CCS(=O)(=O)CC5)cc4Cl)ncc3c2Cl)cn1` [Example 196, (3-Chloro-4-(3-chloro-2-(1-methyl-1H-pyrazol-4-yl)-1H-pyrrolo[3,2-c]pyridin-6-ylamino)phenyl)(S,S-dioxo-thiomorpholino)methanone] returned a 50% inhibitory concentration (IC50) of 9 nM.
`COc1ccccc1Nc1cc2c(cn1)cc(-c1cnco1)n2C(=O)OC(C)(C)C` [Example 96] registered an IC50 of 254 nM.
As for `Cc1ncc(-c2ccc(Nc3cc4c(cn3)cc(-c3cnn(C)c3)n4C(=O)OC3CCCC3)c(Cl)c2)n1C` [Example 84], the IC50 came out at 2 nM.
In turn, `COc1cc(OC2CCN(C)CC2)ccc1Nc1cc2[nH]c(-c3cn[nH]c3)cc2cn1` [Example 166, N-(2-Methoxy-4-(1-methylpiperidin-4-yloxy)phenyl)-2-(1H-pyrazol-4-yl)-1H-pyrrolo[3,2-c]pyridin-6-amine] showed an IC50 of 7 nM.
Turning to `CNCc1ccc(Nc2cc3[nH]c(-c4cnn(C)c4)cc3cn2)c(OC)c1` [Example 138, N-(2-methoxy-4-((methylamino)methyl)phenyl)-2-(1-methyl-1H-pyrazol-4-yl)-1H-pyrrolo[3,2-c]pyridin-6-amine], half-maximal inhibition (IC50) was put at 31 nM.
Consider `Cn1cc(-c2ccc(Cl)c(Nc3cc4c(cn3)cc(-c3cnn(C)c3)n4C(=O)OC(C)(C)C)c2)cn1` [Example 62], for which the IC50 was determined as 537 nM.
`Cn1cc(-c2cc3cnc(Nc4ccc(-c5cncn5C)cc4Cl)cc3n2C2CCCC2)cn1` [Example 80]: the IC50 was found to be 3 nM.
For the molecule `COc1cc(F)ccc1Nc1cc2[nH]c(-c3cnn(C)c3)cc2cn1` [Example 157, N-(4-Fluoro-2-methoxyphenyl)-2-(1-methyl-1H-pyrazol-4-yl)-1H-pyrrolo[3,2-c]pyridin-6-amine], the IC50 was 119 nM.
In the case of `CCCOC(=O)n1c(-c2cnn(C)c2)cc2cnc(Nc3ccc(-c4cnc(C)n4C)cc3Cl)cc21` [Example 88] it was 2 nM; in that of `COc1ccc(C(=O)N(C)C)cc1Nc1cc2[nH]c(-c3cnn(C)c3)cc2cn1` [Example 114, 4-Methoxy-N,N-dimethyl-3-(2-(1-methyl-1H-pyrazol-4-yl)-1H-pyrrolo[3,2-c]pyridin-6-ylamino)benzamide], 497 nM; in that of `Cn1cc(-c2cc3cnc(Nc4ccc(-c5ccnn5C)cc4Cl)cc3n2C(=O)OC(C)(C)C)cn1` [Example 44], 19 nM.
The molecule `CC(C)OC(=O)n1c(-c2cnn(C)c2)cc2cnc(Nc3ccc(C(=O)N(C)C)cc3Cl)cc21` [Example 77] showed an IC50 of 6 nM.
In turn, `COC1CN(C(=O)c2ccc(Nc3cc4[nH]c(-c5cnn(C)c5)c(Cl)c4cn3)c(Cl)c2)C1` [Example 195, (3-chloro-4-(3-chloro-2-(1-methyl-1H-pyrazol-4-yl)-1H-pyrrolo[3,2-c]pyridin-6-ylamino)phenyl)(3-methoxyazetidin-1-yl)methanone] returned an IC50 of 21 nM.
Regarding `Cc1nc(C)c(-c2ccc(Nc3cc4[nH]c(-c5cnn(C)c5)cc4cn3)c(Cl)c2)s1` [Example 150, N-(2-Chloro-4-(2,4-dimethylthiazol-5-yl)phenyl)-2-(1-methyl-1H-pyrazol-4-yl)-1H-pyrrolo[3,2-c]pyridin-6-amine], inhibition was half-maximal at 114 nM (IC50).
In turn, `CN(C)C(=O)c1ccc(Nc2cc3c(cn2)cc(-c2cnn(C)c2)n3S(=O)(=O)C2CCCC2)c(Cl)c1` [Example 110, 3-Chloro-4-(1-(cyclopentylsulfonyl)-2-(1-methyl-1H-pyrazol-4-yl)-1H-pyrrolo[3,2-c]pyridin-6-ylamino)-N,N-dimethylbenzamide] yielded an IC50 of 92 nM.
The molecule `CC(C)n1c(-c2cnn(C)c2)cc2cnc(Nc3ccc(C(=O)N(C)C)cc3Cl)cc21` [Example 74] came in with an IC50 of 50 nM.
Regarding `CC(C)OC(=O)n1c(-c2cnn(C)c2)cc2cnc(Nc3ccc(-c4cncn4C)cc3Cl)cc21` [Example 79], half-maximal inhibition (IC50) required 3 nM.
The molecule `Cn1cc(-c2cc3cnc(Nc4ccccc4Cl)cc3n2CC2CCCCC2)cn1` [Example 67] came in with an IC50 of 4880 nM.
In the case of `CN(C)C(=O)c1ccc(Nc2cc3[nH]c(-c4cnn(C)c4)cc3cn2)c(OC(F)(F)F)c1` [Example 113, N,N-Dimethyl-4-(2-(1-methyl-1H-pyrazol-4-yl)-1H-pyrrolo[3,2-c]pyridin-6-ylamino)-3-(trifluoromethoxy)benzamide], the midpoint of inhibition, the IC50, lay at 68 nM.
On to `Cc1ncc(-c2ccc(Nc3cc4c(cn3)cc(-c3cnn(C)c3)n4C(=O)OC(C)C)c(Cl)c2)n1C` [Example 83], for which the IC50 was 2 nM.
